Measurements from publication PMC7822874, “Chemoprotective antimalarials identified through quantitative high-throughput screening of Plasmodium blood and liver stage parasites” (Scientific Reports, 2021).
Where two headings read alike, the source gives them in different places.

Assays:
[1] = tested on: P. berghei-ANKA-GFP-LucCON liver stage parasites in HepG2-A16-CD81EGFP cells; assay: P. berghei liver stage Pb-Luc assay, Method 1 (UCSD, 1536-well); assay type: cell-based, Plasmodium berghei; settings: Plasmodium berghei, 48 h, P. berghei liver stage, average of 2 wells on a 1536 well plate; for activity at 1 µM: 1 µM compound treatment (10 mM stocks); for activity at 3 µM: 3 µM compound treatment (10 mM stocks)
[2] = tested on: Plasmodium falciparum Dd2 asexual blood stage parasites; assay: microbe, parasite or virus in culture; parameters: species or system Plasmodium falciparum Dd2 in human erythrocytes; single determination (one 11-point concentration-response curve); settings: Plasmodium falciparum, DD2, Erythrocyte, 72 h; read-out: AC50
[3] = tested on: HepG2-A16-CD81EGFP cells; settings: average of 2 wells; for HepG2 1uM growth rep1 / HepG2 1uM growth rep2: HepG2, 1 µM compound treatment (10 mM stocks); for HepG2 1uM growth rep1 / HepG2 3uM growth rep1: replicate 1, normalized; for HepG2 1uM growth rep2 / HepG2 3uM growth rep2: replicate 2, normalized; for HepG2 3uM growth rep1 / HepG2 3uM growth rep2: HepG2, 3 µM compound treatment (10 mM stocks)
[4] = replicate 1, normalized, read-out: PbLuc 1uM growth rep1
[5] = replicate 2, normalized, read-out: PbLuc 1uM growth rep2
[6] = replicate 1, normalized, read-out: PbLuc 3uM growth rep1
[7] = replicate 2, normalized, read-out: PbLuc 3uM growth rep2

| Structure (SMILES) | activity at 1 µM [1, 4] [%] | activity at 1 µM [1, 5] [%] | activity at 3 µM [1, 6] [%] | activity at 3 µM [1, 7] [%] | AC50 [2] [nM] | HepG2 1uM growth rep1 [3] [%] | HepG2 1uM growth rep2 [3] [%] | HepG2 3uM growth rep1 [3] [%] | HepG2 3uM growth rep2 [3] [%] |
| --- | --- | --- | --- | --- | --- | --- | --- | --- | --- |
| CCOC(=O)c1sc2nc3c(SCCC#N)cc(C(=O)c4cc(F)ccc4O)cn3c(=O)c2c1C [MLS000393119-01] | 107 | 121 | 76 | 92 | 1680 | 91 | 92 | 89 | 93 |
| CCOc1ccccc1NC(=O)Cn1c(-c2ccc(Cl)cc2)noc1=O [MLS000529487-01] | 100 | 128 | 102 | 133 | 5960 | 101 | 91 | 84 | 90 |
| COc1ccc2[nH]c(C)c(CCN(Cc3cccs3)C(S)=Nc3ccccc3)c2c1 [MLS000529828-01] | 145 | 108 | 101 | 128 | 2660 | 91 | 90 | 85 | 88 |
| Cc1ccccc1C1C(C#N)=C2N=C(N)c3c(sc4c3CCCCC4)N2C2=C1C(=O)CCC2 (stereo not drawn) [MLS000543544-01] | 129 | 99 | 79 | 94 | 2660 | 94 | 95 | 90 | 96 |
| Cc1cc(C)c(C)c(S(=O)(=O)NCc2ccc(C(=O)N3CCCCC3)cc2)c1C [MLS000547926-01] | 124 | 129 | 104 | 108 | 3760 | 93 | 95 | 87 | 94 |
| CCCCc1c(C)c(C#N)c2nc3ccccc3n2c1Nc1c(C)n(C)n(-c2ccccc2)c1=O [MLS000555448-01] | 131 | 125 | 114 | 127 | 2660 | 92 | 93 | 87 | 94 |
| Cc1noc(C)c1CSc1nc2sc3c(c2c(=O)n1C)CCCC3 [MLS000564913-01] | 120 | 107 | 61 | 89 | 8410 | 92 | 88 | 88 | 92 |
| COc1cccc(C2C3=C(N=c4sc(=Cc5ccccc5O)c(=O)n42)c2ccccc2CC3)c1OC (stereo not drawn) [MLS000580951-01] | 115 | 99 | 96 | 91 | 2990 | 91 | 93 | 90 | 96 |
| Cc1cc(C)n(-c2nnc(N3CCN(c4ccccc4)CC3)nn2)n1 [MLS000695202-01] | 122 | 82 | 91 | 76 | 596 | 99 | 95 | 90 | 98 |
| CCOC(=O)c1c(NC(=O)C[n+]2ccc(N(C)C)cc2)sc(C)c1C [MLS000710762-01] | 75 | 72 | 18 | 30 | 1330 | 91 | 84 | 65 | 65 |
| C/C(=N\Nc1nc(-c2ccccc2O)nc2ccccc12)c1ccccc1 [MLS000714167-01] | 134 | 124 | 108 | 121 | 750 | 91 | 94 | 91 | 97 |
| CCN(CC)CCN1C(=O)c2ccccc2NC1c1ccc(Br)cc1 (stereo not drawn) [MLS000723891-01] | 82 | 70 | 13 | 21 | 1500 | 103 | 94 | 84 | 91 |
| Cc1ccc(-c2cc(C(F)(F)F)n3ncc(C(=O)N4CCCCC4c4cccnc4)c3n2)cc1 (stereo not drawn) [MLS000729132-01] | 126 | 132 | 100 | 119 | 1880 | 101 | 94 | 89 | 91 |
| O=C(Nc1ccc(C2=NCCN2)cc1)c1ccc(C(=O)Nc2ccc(C3=NCCN3)cc2)c(Cl)c1 [MLS000737368-01] | 107 | 94 | 72 | 81 | 473 | 102 | 94 | 85 | 95 |
| O=C(Nc1ccc(Nc2ccncc2)cc1)c1ccc(Nc2ccnc3ccc([N+](=O)[O-])cc23)cc1 [MLS000766132-01] | 125 | 103 | 94 | 98 | 750 | 92 | 91 | 89 | 92 |
| COc1ccc(Nc2cc(C)nc(NCc3ccccc3)n2)cc1 [MLS000768693-01] | 94 | 74 | 21 | 35 | 13300 | 90 | 91 | 82 | 84 |
| O=C(Nc1ccc(S(=O)(=O)N2CCOCC2)cc1)c1cc(-c2cc(Cl)ccc2O)n[nH]1 [MLS000778989-01] | 131 | 90 | 37 | 31 | 2660 | 107 | 100 | 70 | 76 |
| CCOC(=O)C1CCN(C(=O)c2cc(C(C)(C)C)nn2Cc2ccccc2)CC1 [MLS000860456-01] | 119 | 98 | 89 | 96 | 4730 | 105 | 95 | 88 | 93 |
| COc1cc(O)c(C(CCN2CCCCC2)c2ccc(N(C)C)cc2)c(OC)c1 (stereo not drawn) [MLS000879496-01] | 126 | 95 | 91 | 95 | 2660 | 108 | 100 | 87 | 98 |
| COc1ccc(-n2nc(C(=O)NCC(=O)N3CCN(c4ccccc4OC)CC3)c3ccccc3c2=O)c(OC)c1 [MLS000936211-01] | 82 | 118 | 90 | 112 | 2110 | 89 | 88 | 92 | 89 |
| CCC(=O)N1CCc2cc(Br)cc(S(=O)(=O)N3CCCCC3CC)c21 (stereo not drawn) [MLS000936752-01] | 89 | 100 | 89 | 116 | 1060 | 106 | 96 | 87 | 93 |
| COc1cc(NC(=O)c2cc([N+](=O)[O-])ccc2NC(=O)CNC2CCCCC2C)cc(OC)c1 (stereo not drawn) [MLS000950459-01] | 94 | 109 | 82 | 122 | 5960 | 96 | 92 | 90 | 90 |
| N#Cc1c(N2CCN(c3ccc(F)cc3)CC2)nc(N)c2c(N)nc3c(c12)CC(=O)N3C1CC1 [MLS001003889-01] | 114 | 88 | 44 | 56 | 668 | 108 | 97 | 85 | 94 |
